Experimental data: US20250170130A1, “MODULATORS OF MYC FAMILY PROTO-ONCOGENE PROTEIN” (Nalo Therapeutics, priority 2022, published 2025)
Where two headings read alike, the source gives them in different places.

How the values were obtained:
MycN = target: T1, MycN (Homo sapiens, UniProt P04198); experiment: Degradation of MycN protein in SK-N-BE(2) cells, JESS/Western blot of lysates; assay type: cell-based; details: for Dmax at 0.5 µM / Dmax at 1 µM / Dmax at 3 µM / Dmax at 6 µM: SKNBE2, 24 h; for Dmax at 0.5 µM: read-out: % Degradation of MycN (SKNBE2) 24 h, 0.5 μM; for Dmax at 1 µM: read-out: % Degradation of MycN (SKNBE2) 24 h, 1 μM; for Dmax at 3 µM: read-out: % Degradation of MycN (SKNBE2) 24 h, 3 μM; for Dmax at 6 µM: read-out: % Degradation of MycN (SKNBE2) 24 h, 6 μM
T1 construct: endogenous in cells; host or cells: SK-N-BE(2)
T1 sequence (P04198 1-464): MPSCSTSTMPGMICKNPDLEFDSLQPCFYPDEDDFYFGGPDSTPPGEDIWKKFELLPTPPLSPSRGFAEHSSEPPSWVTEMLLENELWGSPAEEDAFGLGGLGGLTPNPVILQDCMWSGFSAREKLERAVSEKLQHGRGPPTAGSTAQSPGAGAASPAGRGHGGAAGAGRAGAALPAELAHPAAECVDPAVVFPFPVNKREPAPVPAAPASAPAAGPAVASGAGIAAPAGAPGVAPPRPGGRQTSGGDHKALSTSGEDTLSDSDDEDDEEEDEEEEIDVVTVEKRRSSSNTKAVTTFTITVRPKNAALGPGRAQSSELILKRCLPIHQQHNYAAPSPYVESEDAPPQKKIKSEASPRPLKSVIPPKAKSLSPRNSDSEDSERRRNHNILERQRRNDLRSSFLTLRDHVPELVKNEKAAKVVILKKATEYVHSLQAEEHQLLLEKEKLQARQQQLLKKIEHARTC
How it was run: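 SK-N-BE(2) adherent cells (5E5 per well of a 6 well dish) were grown 24 hrs, then exposed to compounds diluted 1 in 20 in media, with DMSO controls, for 24 hrs. Cells were scraped, pelleted, PBS washed and lysed in RIPA buffer cocktail; after BCA protein quantitation, n-myc was detected by chemiluminescence on JESS/Western blot with tubulin and GAPDH loading controls read in the near infra red channel.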

MycC = target: T2, MycC (Homo sapiens, UniProt P01106); experiment: Degradation of MycC protein in L363 cells, JESS/Western blot of lysates; assay type: cell-based; details: L-363, 24 h; for Dmax at 3 µM: read-out: % Degradation of MycC (L-363) 24 h, 3 μM; for Dmax at 6 µM: read-out: % Degradation of MycC (L-363) 24 h, 6 μM; for Dmax at 0.5 µM: read-out: % Degradation of MycC (L-363) 24 h, 0.5 μM; for Dmax at 1 µM: read-out: % Degradation of MycC (L-363) 24 h, 1 μM
T2 construct: endogenous in cells; host or cells: L363
T2 sequence (P01106 whole entry): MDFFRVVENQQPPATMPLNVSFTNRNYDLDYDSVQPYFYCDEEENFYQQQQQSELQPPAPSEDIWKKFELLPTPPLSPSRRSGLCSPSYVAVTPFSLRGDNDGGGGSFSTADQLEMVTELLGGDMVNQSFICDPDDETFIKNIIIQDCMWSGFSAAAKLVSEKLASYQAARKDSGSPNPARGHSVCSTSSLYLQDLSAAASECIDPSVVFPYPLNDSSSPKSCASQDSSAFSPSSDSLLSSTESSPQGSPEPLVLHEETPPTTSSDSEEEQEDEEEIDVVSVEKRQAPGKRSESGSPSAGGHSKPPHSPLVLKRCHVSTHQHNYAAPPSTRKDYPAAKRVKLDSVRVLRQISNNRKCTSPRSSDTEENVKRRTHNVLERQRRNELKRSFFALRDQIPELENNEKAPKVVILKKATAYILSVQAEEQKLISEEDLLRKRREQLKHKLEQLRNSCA
How it was run: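 L363 suspension cells were seeded at 1E6 cells per well and exposed to compound (stock 10 mM in DMSO) for 24 hrs. Cells were collected, spun down, rinsed with PBS, lysed in RIPA buffer cocktail on ice, clarified and kept at −80 degrees. Lysate protein was quantified by BCA, and c-myc was measured on JESS by chemiluminescence with tubulin and GAPDH loading controls in the NIR channel.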

Row | Structure (SMILES) | Dmax at 0.5 µM (MycN; SKNBE2 cells, 24 h, 0.5 μM) [%] | Dmax at 1 µM (MycN; SKNBE2 cells, 24 h, 1 μM) [%] | Dmax at 3 µM (MycN; SKNBE2 cells, 24 h, 3 μM) [%] | Dmax at 6 µM (MycN; SKNBE2 cells, 24 h, 6 μM) [%] | Dmax at 3 µM (MycC; L-363 cells, 24 h, 3 μM) [%] | Dmax at 6 µM (MycC; L-363 cells, 24 h, 6 μM) [%] | Dmax at 0.5 µM (MycC; L-363 cells, 24 h) [%] | Dmax at 1 µM (MycC; L-363 cells, 24 h, 1 μM) [%] | % Degradation of MycN (SKNBE2) 24 h, 6 μM (MycN; SKNBE2 cells, 24 h, 6 μM) | Dmax at 0.5 µM (MycN) [%] | Dmax at 1 µM (MycN) [%] | Dmax at 3 µM (MycN) [%] | Dmax at 6 µM (MycN) [%] | Dmax at 1 µM (MycC) [%] | Dmax at 3 µM (MycC) [%] | Dmax at 6 µM (MycC) [%]
1 | CNC[C@@H]1CCN(c2nccc(Nc3cc(C4CC4)[nH]n3)n2)C1 [Compound 21, N-(5-Cyclopropyl-1H-pyrazol-3-yl)-2-[(3S)-3-(methylaminomethyl)pyrrolidin-1-yl]pyrimidin-4-amine] | 20 to 49 | < 20 | 20 to 49 | 20 to 49 | < 20 | 20 to 49 | – | – | – | – | – | – | – | – | – | –
2 | CN[C@@H]1CCN(c2nccc(Nc3cc(C4CC4)[nH]n3)n2)C1 [Compound 19, N-(5-Cyclopropyl-1H-pyrazol-3-yl)-2-[(3R)-3-(methylamino)pyrrolidin-1-yl]pyrimidin-4-amine] | – | – | 20 to 49 | 20 to 49 | – | – | < 20 | – | – | – | – | – | – | – | – | –
3 | CNCC12CC(C1)N(c1nccc(Nc3cc(C4CCC4)[nH]n3)n1)C2 [Compound 81, N-(5-Cyclobutyl-1H-pyrazol-3-yl)-2-[4-(methylaminomethyl)-2-azabicyclo[2.1.1]hexan-2-yl]pyrimidin-4-amine] | 20 to 49 | 50 to 79 | 80 to 100 | 80 to 100 | 80 to 100 | 80 to 100 | 20 to 49 | 20 to 49 | – | – | – | – | – | – | – | –
4 | CN1CC(C2CCN(c3nccc(Nc4cc(C5CCCC5)[nH]n4)n3)C2)C1 (centres unmarked) [Compound 27, N-(5-cyclopentyl-1H-pyrazol-3-yl)-2-[3-(1-methylazetidin-3-yl)pyrrolidin-1-yl]pyrimidin-4-amine] | 20 to 49 | 20 to 49 | 50 to 79 | 80 to 100 | < 20 | 20 to 49 | < 20 | 20 to 49 | – | – | – | – | – | – | – | –
5 | CN(C)[C@@H]1CCN(c2nccc(Nc3cc(C4CC4)[nH]n3)n2)C1 [Compound 17, N-(5-cyclopropyl-1H-pyrazol-3-yl)-2-[(3R)-3-(dimethylamino)pyrrolidin-1-yl]pyrimidin-4-amine] | 20 to 49 | 20 to 49 | 50 to 79 | 80 to 100 | < 20 | 80 to 100 | – | – | – | – | – | – | – | – | – | –
6 | CNCC12CC(C1)N(c1nccc(Nc3cc(C4CCCC4)[nH]n3)n1)C2 [Compound 31, N-(5-cyclopentyl-1H-pyrazol-3-yl)-2-[4-(methylaminomethyl)-2-azabicyclo[2.1.1]hexan-2-yl]pyrimidin-4-amine] | 80 to 100 | 80 to 100 | 80 to 100 | 80 to 100 | 80 to 100 | 80 to 100 | – | – | – | – | – | – | – | – | – | –
7 | CNC(C)C1CCCN(c2nccc(Nc3cc(C4CC4)[nH]n3)n2)C1 (single isomer, unassigned) [Compound 162, N-(5-Cyclopropyl-1H-pyrazol-3-yl)-2-[3-[1-(methylamino)ethyl]-1-piperidyl]pyrimidin-4-amine] | 20 to 49 | 20 to 49 | – | 80 to 100 | 20 to 49 | – | 20 to 49 | 20 to 49 | **** (degradation 80-100%) | – | – | – | – | – | – | –
8 | NCC1CN(c2nccc(Nc3cc(C4CC4)[nH]n3)n2)CC(F)(F)C1 (centres unmarked) [Compound 121, 2-[5-(Aminomethyl)-3,3-difluoro-1-piperidyl]-N-(5-cyclopropyl-1H-pyrazol-3-yl)pyrimidin-4-amine] | – | – | – | – | – | – | – | – | – | 50 to 79 | 50 to 79 | 80 to 100 | 80 to 100 | 80 to 100 | 80 to 100 | 80 to 100
9 | CNC[C@H]1CN(c2nccc(Nc3cc(C4CCCC4)[nH]n3)n2)C[C@H]1F [Compound 181] | < 20 | < 20 | 20 to 49 | 80 to 100 | – | 80 to 100 | – | < 20 | – | – | – | – | – | – | – | –
10 | c1cc(Nc2cc(C3CC3)[nH]n2)nc(N2CCC3(CCNC3)C2)n1 (centres unmarked) [Compound 42, N-(5-Cyclopropyl-1H-pyrazol-3-yl)-2-(2,7-diazaspiro[4.4]nonan-2-yl)pyrimidin-4-amine] | 20 to 49 | 50 to 79 | 50 to 79 | 80 to 100 | – | 80 to 100 | < 20 | < 20 | – | – | – | – | – | – | – | –
11 | c1cc(Nc2cc(C3CC3)[nH]n2)nc(N2CCC3(CNC3)C2)n1 [Compound 2, N-(5-cyclopropyl-1H-pyrazol-3-yl)-2-(2,6-diazaspiro[3.4]octan-6-yl)pyrimidin-4-amine] | < 20 | < 20 | < 20 | 50 to 79 | 20 to 49 | 20 to 49 | 20 to 49 | 20 to 49 | – | – | – | – | – | – | – | –
12 | c1cc(Nc2cc(C3CCCC3)[nH]n2)nc(N2CC3(CN4CCCC4)CC2C3)n1 [Compound 75, N-(5-Cyclopentyl-1H-pyrazol-3-yl)-2-[4-(pyrrolidin-1-ylmethyl)-2-azabicyclo[2.1.1]hexan-2-yl]pyrimidin-4-amine] | 20 to 49 | 20 to 49 | 50 to 79 | 80 to 100 | – | 50 to 79 | – | – | – | – | – | – | – | – | – | –
13 | NCC12CC(C1)N(c1nccc(Nc3cc(C4CC4)[nH]n3)n1)C2 [Compound 30, 2-[4-(aminomethyl)-2-azabicyclo[2.1.1]hexan-2-yl]-N-(5-cyclopropyl-1H-pyrazol-3-yl)pyrimidin-4-amine] | – | – | – | – | – | – | – | – | – | < 20 | 50 to 79 | 80 to 100 | 80 to 100 | 20 to 49 | 80 to 100 | 80 to 100
14 | CNCC12CCC(C1)N(c1nccc(Nc3cc(C4CC4)[nH]n3)n1)C2 (centres unmarked) [Compound 45, N-(5-Cyclopropyl-1H-pyrazol-3-yl)-2-[4-(methylaminomethyl)-2-azabicyclo[2.2.1]heptan-2-yl]pyrimidin-4-amine] | 80 to 100 | 80 to 100 | 80 to 100 | 80 to 100 | 80 to 100 | 80 to 100 | 80 to 100 | 80 to 100 | – | – | – | – | – | – | – | –
